The assay deals with Cyclooxygenase (Homo sapiens, UniProt P35354+P23219). Put plainly: Inhibitory activity against Prostaglandin G/H synthase.

pIC50: −log10 of the molar value. Bounds are passed on as bounds.

Take `O=C(O)CCCCCN1C(=O)C=CC1=O`: the IC50 (as a rule, the concentration at which inhibition is half-maximal) was more than 800 µM. As to `O=C(O)CCCCCCCCCCCN1C(=O)C=CC1=O`, the half-maximal inhibitory concentration (IC50) is 140 µM. The compound `O=C(O)CCCCCCCCN1C(=O)C=CC1=O` registered an IC50 of 26 µM.

Compound `Cc1ccccc1CN1C(=O)C=CC1=O` gave an IC50 of 50 µM. `O=C(O)c1ccccc1OCCN1C(=O)C=CC1=O` had an IC50 of 250 µM. `CC(=O)Oc1ccc(N2C(=O)C=CC2=O)cc1C(=O)O` had an IC50 of 29 µM.

`CC(=O)Oc1cc(N2C(=O)C=CC2=O)ccc1C(=O)O`: the pIC50 (as a rule, the negative decadic logarithm of the IC50, by convention in mol/L) was less than 3.70. Consider `O=C(O)CCCCCCN1C(=O)C=CC1=O`, for which the IC50 turned out to be 570 µM. Consider `CCCCCCCCCN1C(=O)C=CC1=O`, for which the IC50 worked out at 12 µM.

Consider `CCCCCCCCCCN1C(=O)C=CC1=O`, for which the IC50 stood at 14 µM. The compound `O=C(O)CCCCCCCCCN1C(=O)C=CC1=O` displayed a concentration for half-maximal inhibition (IC50) of 37 µM. Take `O=C(O)CCCCCCCCCCN1C(=O)C=CC1=O`: the IC50 is 40 µM. As for `O=C(O)c1ccc(CN2C(=O)C=CC2=O)cc1`, the IC50 worked out at 27 µM.

Values taken from ChEMBL document CHEMBL1129063, “Design, synthesis, and biochemical evaluation of N-substituted maleimides as inhibitors of prostaglandin endoperoxide synthases” (J Med Chem, 1996).
